According to US8420657B2 (Novartis AG, priority 2008, dated 2013):

What was measured:
[1] = test system: JAK1/JAK2-dependent nuclear translocation of STAT1-GFP in HT1080 fibrosarcoma cells; experiment: STAT1 nuclear translocation assay (Cellomics), IFN-γ stimulated HT1080 STAT1-GFP cells; type: cell-based; conditions: Homo sapiens, HT-1080, STAT1 translocation pathway
Summary of the method: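 HT1080 cells stably expressing STAT1-GFP, pre-treated 30 min with compound (10 μM–0.003 μM, 0.1% DMSO), then stimulated 2 h with 100 ng/ml IFN-γ, fixed and Hoechst-stained. Nuclear-cytoplasmic GFP differential imaged over ≥1000 cells/well, normalised to unstimulated and DMSO-stimulated wells for IC50.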

[2] = biological target: T1, GST-JAK2(808-1132) (Homo sapiens, UniProt O60674); experiment: JAK2 kinase assay (Caliper mobility shift, LabChip 3000); type: biochemical
T1 construct: GST-JAK2(808-1132); purchased Invitrogen (Carlsbad, USA) #4288
T1 sequence (O60674 808-1132): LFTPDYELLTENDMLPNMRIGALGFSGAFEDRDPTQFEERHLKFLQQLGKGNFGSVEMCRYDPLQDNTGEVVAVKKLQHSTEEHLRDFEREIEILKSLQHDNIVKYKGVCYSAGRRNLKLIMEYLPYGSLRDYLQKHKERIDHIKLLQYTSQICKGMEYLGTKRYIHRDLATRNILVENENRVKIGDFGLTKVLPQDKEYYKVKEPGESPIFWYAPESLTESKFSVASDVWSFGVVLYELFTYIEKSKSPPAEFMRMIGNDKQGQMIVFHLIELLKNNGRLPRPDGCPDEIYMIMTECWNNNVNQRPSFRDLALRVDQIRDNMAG
Summary of the method: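 Recombinant GST-JAK2(808-1132) kinase domain with FITC-labelled JAK3tide peptide substrate and ATP; 60 min at 30 °C, EDTA stop. Substrate/product ratio read by microfluidic mobility shift; compounds at 8 final concentrations, 10 to 0.003 μM.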

| Compound | IC50 [1] | IC50 [2] |
| --- | --- | --- |
| O=C(c1c(F)cc(-n2ccc3cnc(Nc4ccc(N5CCNCC5)nc4)nc32)cc1F)N1CCOCC1 [Example 262, {2,6-Difluoro-4-[2-(6-piperazin-1-yl-pyridin-3-ylamino)-pyrrolo[2,3-d]pyrimidin-7-yl]-phenyl}-morpholin-4-yl-methanone] | 285 nM | 4.2 nM |
| Fc1cc(-n2ccc3cnc(Nc4ccc(N5CCNCC5)nc4)nc32)cc(F)c1CN1CCOCC1 [Example 263, [7-(3,5-Difluoro-4-morpholin-4-ylmethyl-phenyl)-7H-pyrrolo[2,3-d]pyrimidin-2-yl]-(6-piperazin-1-yl-pyridin-3-yl)-amine] | 55 nM | < 3 nM |
| O=C(c1c(F)cc(-n2ccc3cnc(Nc4ccc(N5CCN(CCO)CC5)nc4)nc32)cc1F)N1CCOCC1 [Example 264, [2,6-Difluoro-4-(2-{6-[4-(2-hydroxy-ethyl)-piperazin-1-yl]-pyridin-3-ylamino}-pyrrolo[2,3-d]pyrimidin-7-yl)-phenyl]-morpholin-4-yl-methanone] | 165 nM | < 3 nM |
| OCCN1CCN(c2ccc(Nc3ncc4ccn(-c5cc(F)c(CN6CCOCC6)c(F)c5)c4n3)cn2)CC1 [Example 265, 2-(4-{5-[7-(3,5-Difluoro-4-morpholin-4-ylmethyl-phenyl)-7H-pyrrolo[2,3-d]pyrimidin-2-ylamino]-pyridin-2-yl}-piperazin-1-yl)-ethanol] | 40 nM | < 3 nM |
| C[C@@H]1CN(c2ccc(Nc3ncc4ccn(-c5cc(F)c(C(=O)N6CCOCC6)c(F)c5)c4n3)cn2)C[C@H](C)N1 [Example 266, (4-{2-[6-(cis-3,5-Dimethyl-piperazin-1-yl)-pyridin-3-ylamino]-pyrrolo[2,3-d]pyrimidin-7-yl}-2,6-difluoro-phenyl)-morpholin-4-yl-methanone] | 150 nM | 8.4 nM |
| C[C@@H]1CN(c2ccc(Nc3ncc4ccn(-c5cc(F)c(CN6CCOCC6)c(F)c5)c4n3)cn2)C[C@H](C)N1 [Example 267, [7-(3,5-Difluoro-4-morpholin-4-ylmethyl-phenyl)-7H-pyrrolo[2,3-d]pyrimidin-2-yl]-[6-(cis-3,5-dimethyl-piperazin-1-yl)-pyridin-3-yl]-amine] | 50 nM | < 3 nM |
| O=C(c1c(F)cc(-n2ccc3cnc(Nc4ccc(N5CCNC6(CC6)C5)nc4)nc32)cc1F)N1CCOCC1 [Example 268, (4-{2-[6-(4,7-Diaza-spiro[2.5]oct-7-yl)-pyridin-3-ylamino]-pyrrolo[2,3-d]pyrimidin-7-yl}-2,6-difluoro-phenyl)-morpholin-4-yl-methanone] | 210 nM | 7.8 nM |
| Fc1cc(-n2ccc3cnc(Nc4ccc(N5CCNC6(CC6)C5)nc4)nc32)cc(F)c1CN1CCOCC1 [Example 270, [6-(4,7-Diaza-spiro[2.5]oct-7-yl)-pyridin-3-yl]-[7-(3,5-difluoro-4-morpholin-4-ylmethyl-phenyl)-7H-pyrrolo[2,3-d]pyrimidin-2-yl]-amine] | 35 nM | 4.3 nM |
| CS(=O)(=O)c1ccc(-n2ccc3cnc(Nc4ccc(N5CCNC6(CC6)C5)nc4)nc32)cc1 [Example 272, [6-(4,7-Diaza-spiro[2.5]oct-7-yl)-pyridin-3-yl]-[7-(4-methanesulfonyl-phenyl)-7H-pyrrolo[2,3-d]pyrimidin-2-yl]-amine] | 175 nM | 11 nM |
| C[C@@H]1CN(c2ccc(Nc3ncc4ccn(-c5ccc(S(C)(=O)=O)cc5)c4n3)cn2)C[C@H](C)N1 [Example 273, [6-(cis-3,5-Dimethyl-piperazin-1-yl)-pyridin-3-yl]-[7-(4-methanesulfonyl-phenyl)-7H-pyrrolo[2,3-d]pyrimidin-2-yl]-amine] | 190 nM | 6 nM |
| CCOc1ccc(Nc2ncc3cc(C)n(-c4ccc(CC(=O)N5CCS(=O)(=O)CC5)c(F)c4)c3n2)cc1OCC [Example 286, 2-{4-[2-(3,4-Diethoxy-phenylamino)-6-methyl-pyrrolo[2,3-d]pyrimidin-7-yl]-2-fluoro-phenyl}-1-(1,1-dioxido-thiomorpholin-4-yl)-ethanone] | 285 nM | 10.6 nM |
| CCOc1ccc(Nc2ncc3cc(C)n(-c4ccc(C(=O)N5CCOCC5)c(F)c4)c3n2)cc1OCC [Example 287, {4-[2-(3,4-Diethoxy-phenylamino)-6-methyl-pyrrolo[2,3-d]pyrimidin-7-yl]-2-fluoro-phenyl}-morpholin-4-yl-methanone] | 441 nM | 46.5 nM |
| O=C(c1ccc(-n2ccc3cnc(Nc4ccc(CN5CCOCC5)cc4)nc32)cc1F)N1CCOCC1 [Example 288, {2-Fluoro-4-[2-(4-morpholin-4-ylmethyl-phenylamino)-pyrrolo[2,3-d]pyrimidin-7-yl]-phenyl}-morpholin-4-yl-methanone] | 67.5 nM | < 3 nM |
| Cc1ccc(Nc2ncc3ccn(-c4cc(F)c(CN5CCOCC5)c(F)c4)c3n2)cc1C [Example 289, [7-(3,5-Difluoro-4-morpholin-4-ylmethyl-phenyl)-7H-pyrrolo[2,3-d]pyrimidin-2-yl]-(3,4-dimethyl-phenyl)-amine] | 232 nM | < 17 nM |
| Cc1ccc(Nc2ncc3ccn(-c4cc(F)c(CN5CCS(=O)(=O)CC5)c(F)c4)c3n2)cc1C [Example 290, (3,4-Dimethyl-phenyl)-{7-[4-(1,1-dioxido-thiomorpholin-4-ylmethyl)-3,5-difluoro-phenyl]-7H-pyrrolo[2,3-d]pyrimidin-2-yl}-amine] | 37 nM | < 3 nM |
| Cc1ccc(Nc2ncc3ccn(-c4ccc(C(=O)N5CCS(=O)(=O)CC5)c(F)c4)c3n2)cc1C [Example 291, {4-[2-(3,4-Dimethyl-phenylamino)-pyrrolo[2,3-d]pyrimidin-7-yl]-2-fluoro-phenyl}-(1,1-dioxido-thiomorpholin-4-yl)-methanone] | 54 nM | < 3 nM |
| CCN1CCN(c2ccc(Nc3ncc4ccn(-c5ccc(CC(=O)N6CCS(=O)(=O)CC6)c(F)c5)c4n3)cc2C)CC1 [Example 292, 1-(1,1-Dioxido-thiomorpholin-4-yl)-2-(4-{2-[4-(4-ethyl-piperazin-1-yl)-3-methyl-phenylamino]-pyrrolo[2,3-d]pyrimidin-7-yl}-2-fluoro-phenyl)-ethanone] | 12.5 nM | < 3 nM |
| CCN1CCN(c2ccc(Nc3ncc4ccn(-c5ccc(C(=O)N6CCOCC6)c(F)c5)c4n3)cc2C)CC1 [Example 293, (4-{2-[4-(4-Ethyl-piperazin-1-yl)-3-methyl-phenylamino]-pyrrolo[2,3-d]pyrimidin-7-yl}-2-fluoro-phenyl)-morpholin-4-yl-methanone] | 8 nM | < 3 nM |
| Cc1ccc(Nc2ncc3ccn(-c4ccc(C(=O)N5CCOCC5)c(C)c4)c3n2)cc1C [Example 294, {4-[2-(3,4-Dimethyl-phenylamino)-pyrrolo[2,3-d]pyrimidin-7-yl]-2-methyl-phenyl}-morpholin-4-yl-methanone] | 415 nM | < 3 nM |
| COc1cc(Nc2ncc3ccn(-c4ccc(C(=O)N5CCOCC5)c(F)c4)c3n2)ccc1Cl [Example 295, {4-[2-(4-Chloro-3-methoxy-phenylamino)-pyrrolo[2,3-d]pyrimidin-7-yl]-2-fluoro-phenyl}-morpholin-4-yl-methanone] | 795 nM | 14.5 nM |
| COc1cc(Nc2ncc3ccn(-c4ccc(C(=O)N5CCOCC5)c(C)c4)c3n2)ccc1F [Example 296, {4-[2-(4-Fluoro-3-methoxy-phenylamino)-pyrrolo[2,3-d]pyrimidin-7-yl]-2-methyl-phenyl}-morpholin-4-yl-methanone] | 1100 nM | < 3 nM |
| Cc1ccc(Nc2ncc3ccn(-c4ccc(C(=O)NCCN5CCOCC5)c(F)c4)c3n2)cc1C [Example 297, 4-[2-(3,4-Dimethyl-phenylamino)-pyrrolo[2,3-d]pyrimidin-7-yl]-2-fluoro-N-(2-morpholin-4-yl-ethyl)-benzamide] | 2140 nM | 30 nM |
| Cc1ccc(Nc2ncc3ccn(-c4ccc(C(=O)NCCN5CCN(C)CC5)c(F)c4)c3n2)cc1C [Example 298, 4-[2-(3,4-Dimethyl-phenylamino)-pyrrolo[2,3-d]pyrimidin-7-yl]-2-fluoro-N-[2-(4-methyl-piperazin-1-yl)-ethyl]-benzamide] | 2210 nM | 23 nM |
| Cc1ccc(Nc2ncc3ccn(-c4ccc(C(=O)N5CCC(N(C)C)CC5)c(F)c4)c3n2)cc1C [Example 299, (4-Dimethylamino-piperidin-1-yl)-{4-[2-(3,4-dimethyl-phenylamino)-pyrrolo[2,3-d]pyrimidin-7-yl]-2-fluoro-phenyl}-methanone] | 145 nM | 18.5 nM |
| Cn1cc(Nc2ncc3ccn(-c4ccc(C(=O)N5CCOCC5)c(F)c4)c3n2)cn1 [Example 302, {2-Fluoro-4-[2-(1-methyl-1H-pyrazol-4-ylamino)-pyrrolo[2,3-d]pyrimidin-7-yl]-phenyl}-morpholin-4-yl-methanone] | 85 nM | 6.1 nM |
| COc1cc(Nc2ncc3ccn(-c4ccc(C(=O)N5CCOCC5)c(F)c4)c3n2)ccc1C [Example 303, {2-Fluoro-4-[2-(3-methoxy-4-methyl-phenylamino)-pyrrolo[2,3-d]pyrimidin-7-yl]-phenyl}-morpholin-4-yl-methanone] | 295 nM | 4.9 nM |
| Cc1ccc(Nc2ncc3ccn(-c4cc(F)c(CN5CCN(C)CC5)c(F)c4)c3n2)cc1C [Example 304, {7-[3,5-Difluoro-4-(4-methyl-piperazin-1-ylmethyl)-phenyl]-7H-pyrrolo[2,3-d]pyrimidin-2-yl}-(3,4-dimethyl-phenyl)-amine] | 1480 nM | 13.5 nM |
